Consider 20 molecules from patent US20220204497A1, “NOVEL COMPOUND HAVING ANTICANCER ACTIVITY, AND METHOD FOR PRODUCING SAME” (MEDICINAL BIOCONVERGENCE RESEARCH CENTER, priority 2019, published 2022).

In one data set the target is T1, AIMP2-DX2 (Homo sapiens, UniProt Q13155).
T1 sequence (Q13155 1-251 isoform Q13155-2): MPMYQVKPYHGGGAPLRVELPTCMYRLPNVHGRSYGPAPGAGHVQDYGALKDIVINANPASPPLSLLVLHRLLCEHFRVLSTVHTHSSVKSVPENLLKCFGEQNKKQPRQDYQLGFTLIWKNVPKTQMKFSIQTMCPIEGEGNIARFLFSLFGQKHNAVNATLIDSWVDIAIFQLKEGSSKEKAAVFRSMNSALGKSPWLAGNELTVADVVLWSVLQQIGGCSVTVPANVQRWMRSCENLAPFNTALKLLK
The data set is described as follows: DX2-nanoluciferase assay (DX2 expression change) in transfected A549 cells. Conditions: for inhibition at 10 µM / inhibition at 40 µM: A549, 4 h; for inhibition at 10 µM: read-out: DX-Nanoluciferase activity (10 μM), 10 μM, 4 hours treatment, A549 cells transfected with nanoluciferase-DX2; for inhibition at 40 µM: read-out: DX-Nanoluciferase activity (40 μM), 40 μM, 4 hours treatment, A549 cells transfected with nanoluciferase-DX2.

A further data set deals with A549 cells. The data set is described as follows: Cell viability by MTT method in A549 cells. The format is cell-based. Further details: concentration or dose not given beside the values. Conditions: 72 hours treatment.
[1] abbreviates: 4 hours treatment, A549 cells transfected with nanoluciferase-DX2.
The mark [2] stands for this setting: inhibitory effect on AIMP2-DX2 expression.

Procedure for AIMP2-DX2: After cloning DX2 into a plasmid expressing nanoluciferase, the plasmid was transfected into A549 cells. Transfected cells were seeded 1×10^4 per well in a 96-well plate and stabilized for 12 hours. […] Cell viability was measured by the MTT method after 72 hours of treatment with each concentration of the compound in A549 cells.

For `Cc1ccc(S(=O)(=O)N[C@@H](Cc2ccc(C(=O)c3ccccc3)cc2)C(=O)Nc2ccc(N3CCOCC3)cc2)cc1` [Compound 115, (S)-3-(4-Benzoylphenyl)-2-(4-methylphenylsulfonamido)-N-(4-morpholinophenyl)propanamide], the inhibition at 10 µM at AIMP2-DX2 came out at 2.16 ± 6.66%. In addition, in the data set with A549 cells, the “Cell Viability (% inhibition) (A549)” value was determined as 0.35 ± 0.67%.

With `CNC(=O)c1ccc(S(=O)(=O)N[C@@H](Cc2c[nH]c3ccccc23)C(=O)Nc2ccc(N3CCOCC3)cc2)cc1` [Compound 116, (S)-4-(N-(3-(1H-indol-3-yl)-1-(4-morpholinophenylamino)-1-oxopropan-2-yl)sulfamoyl)-N-methylbenzamide], on AIMP2-DX2, the inhibition at 10 µM is -0.11 ± 15.1%. Also, the “Cell Viability (% inhibition) (A549)” value in the data set on A549 cells is listed as 34.22 ± 7.94%.

Turning to `Cc1ccc(S(=O)(=O)N[C@@H](Cc2ccc3ccccc3c2)C(=O)Nc2ccc(N3CCOCC3)cc2)cc1` [Compound 117, (S)-2-(4-Methylphenylsulfonamido)-N-(4-morpholinophenyl)-3-(naphthalen-2-yl)propanamide], the inhibition at 10 µM at AIMP2-DX2 is -2.56 ± 9.56%. The “Cell Viability (% inhibition) (A549)” value in the data set on A549 cells is 4.59 ± 6.86%.

With `CC(C)(C)OC(=O)N[C@@H](Cc1c[nH]c2ccccc12)C(=O)Nc1ccc(N2CCOCC2)cc1` [Compound 118, (S)-tert-Butyl 3-(1H-Indol-3-yl)-1-(4-morpholinophenylamino)-1-oxopropan-2-ylcarbamate], the inhibition at 10 µM on AIMP2-DX2 came to 8.22 ± 5.02%. The “Cell Viability (% inhibition) (A549)” value in the data set on A549 cells was found to be 9.26 ± 7.63%.

As for `Cc1ccc(S(=O)(=O)N[C@@H](Cc2c[nH]c3ccccc23)C(=O)O)cc1` [Compound 119, (S)-3-(1-Indol-3-yl)-2-(4-methylphenylsulfonamido)propanoic acid], on AIMP2-DX2 (setting [1]), the “DX-Nanoluciferase activity (10 μM)” value amounted to 14.92 ± 10.18. Also, the “Cell Viability (% inhibition) (A549)” value with A549 cells worked out at 1.59 ± 8.71%.

Regarding `COc1cc(N2CCN(C(=O)OC(C)(C)C)CC2)ccc1NC(=O)[C@H](Cc1c[nH]c2ccccc12)NS(=O)(=O)c1ccc(C)cc1` [Compound 120, (S)-tert-Butyl 4-(4-(3-(1H-indol-3-yl)-2-(4-methylphenylsulfonamido)propanamido)-3-methoxyphenyl)piperazine-1-carboxylate], the inhibition at 10 µM on AIMP2-DX2 amounted to 21.3 ± 14.2%. The “Cell Viability (% inhibition) (A549)” value in the data set with A549 cells was 66.51 ± 1.24%.

Take `COc1cc(N2CCNCC2)ccc1NC(=O)[C@H](Cc1c[nH]c2ccccc12)NS(=O)(=O)c1ccc(C)cc1` [Compound 121, (S)-3-(1H-indol-3-yl)-N-(2-methoxy-4-(piperazin-1-yl)phenyl)-2-(4-methylphenylsulfonamido)propanamide]: the inhibition at 10 µM at AIMP2-DX2 is 41.7 ± 17.3%. Moreover, the “Cell Viability (% inhibition) (A549)” value in the data set with A549 cells was 51.15 ± 0.5%.

With `Cc1ccc(S(=O)(=O)N[C@@H](Cc2c[nH]c3ccccc23)C(=O)Nc2ccc(N3CCN(C(=O)OC(C)(C)C)CC3)cc2)cc1` [Compound 122, (S)-tert-Butyl 4-(4-(3-(1H-indol-3-yl)-2-(4-methylphenylsulfonamido)propanamido)phenyl)piperazine-1-carboxylate], the inhibition at 10 µM on AIMP2-DX2 was determined as 38 ± 1.7%. The “Cell Viability (% inhibition) (A549)” value in the data set on A549 cells is given as 69.45 ± 1.3%.

In the case of `COc1cc(N2CCOCC2)ccc1NC(=O)[C@H](Cc1c[nH]c2ccccc12)NS(=O)(=O)c1ccc(C)cc1` [Compound 123, (S)-3-(1H-indol-3-yl)-N-(2-methoxy-4-morpholinophenyl)-2-(4-methylphenylsulfonamido)propanamide], at AIMP2-DX2, the inhibition at 10 µM amounted to 22.4 ± 11.8%. Further, in the data set on A549 cells, the “Cell Viability (% inhibition) (A549)” value worked out at 34.01 ± 10.45%.

For the molecule `Cc1ccc(S(=O)(=O)N[C@@H](Cc2c[nH]c3ccccc23)C(=O)Nc2ccc(N3CCNCC3)cc2)cc1` [Compound 124, (S)-3-(1H-indol-3-yl)-2-(4-methylphenylsulfonamido)-N-(4-(piperazin-1-yl)phenyl)propanamide], the inhibition at 10 µM on AIMP2-DX2 came to 20.9 ± 9.8%. Moreover, in the data set on A549 cells, the “Cell Viability (% inhibition) (A549)” value turned out to be 16.44 ± 18.56%.

As to `Cc1ccc(S(=O)(=O)N[C@@H](Cc2c[nH]c3ccccc23)C(=O)OCc2ccccc2)cc1` [Compound 127, (S)-Benzyl 3-(1H-indol-3-yl)-2-(4-methylphenylsulfonamido)propanoate], on AIMP2-DX2 (setting [2]), the inhibition at 40 µM was determined as 49.9 ± 1.6%. Further, the “Cell Viability (% inhibition) (A549)” value with A549 cells amounted to 94.24 ± 0.54%.

Take `Cc1ccc(C(=O)N[C@@H](Cc2c[nH]c3ccccc23)C(=O)OCc2ccccc2)cc1` [Compound 128, (S)-Benzyl 3-(1H-indol-3-yl)-2-(4-methylbenzamido)propanoate]: on AIMP2-DX2 (setting [2]), the inhibition at 40 µM came out at 36.8 ± 8.13%. The “Cell Viability (% inhibition) (A549)” value in the data set with A549 cells was 63.08 ± 7.72%.

For `Cc1ccc(C(=O)N[C@@H](Cc2c[nH]c3ccccc23)C(=O)Nc2ccc(N3CCOCC3)cc2)cc1` [Compound 129, (S)—N-(3-(1 Indol-3-yl)-1-(4-morpholinophenylamino)-1-oxopropan-2-yl)-4-methylbenzamide], at AIMP2-DX2 (40 μM, 4 hours treatment, A549 cells transfected with nanoluciferase-DX2, inhibitory effect on AIMP2-DX2 expression), the “DX-Nanoluciferase activity (40 μM)” value stood at 53.02 ± 9.60. Further, the “Cell Viability (% inhibition) (A549)” value in the data set with A549 cells is listed as 60.35 ± 3.98%.

As to `Cc1ccc(S(=O)(=O)NCC(=O)N2CCOCC2)cc1` [Compound 155, 4-Methyl-N-(2-morpholino-2-oxoethyl)benzenesulfonamide], on AIMP2-DX2 (setting [2]), the inhibition at 40 µM is 31.3 ± 4.4%. The “Cell Viability (% inhibition) (A549)” value with A549 cells came out at 17.30 ± 0.81%.

Turning to `Cc1ccc(S(=O)(=O)NC2(C(=O)N3CCOCC3)CCCCC2)cc1` [Compound 156, 4-Methyl-N-(1-(morpholine-4-carbonyl)cyclohexyl)benzenesulfonamide], the inhibition at 40 µM at AIMP2-DX2 (setting [2]) was -0.2 ± 6.6%. In addition, the “Cell Viability (% inhibition) (A549)” value in the data set with A549 cells was determined as 13.51 ± 2.04%.

In the case of `O=C(Nc1ccc(N2CCOCC2)cc1)[C@H](Cc1c[nH]c2ccccc12)NS(=O)(=O)c1ccc(O)cc1` [Compound 158, (S)-2-(4-Hydroxyphenylsulfonamido)-3-(1H-indol-3-yl)-N-(4-morpholinophenyl)propanamide], the inhibition at 10 µM on AIMP2-DX2 was -7.04 ± 4.87%. In the data set on A549 cells, the “Cell Viability (% inhibition) (A549)” value is listed as 24.87 ± ? .01%.

For the molecule `O=C(O)c1ccc(S(=O)(=O)N[C@@H](Cc2c[nH]c3ccccc23)C(=O)Nc2ccc(N3CCOCC3)cc2)cc1` [Compound 159, (S)-4-(N-(3-(1-indol-3-yl)-1-(4-morpholinophenylamino)-1-oxopropan-2-yl)sulfamoyl)benzoic acid], the “DX-Nanoluciferase activity (10 μM)” value at AIMP2-DX2 (setting [1]) is 1.75 ± 8.96 (10 μM). Also, the “Cell Viability (% inhibition) (A549)” value in the data set with A549 cells is listed as 24.60 ± ? .96%.

In the case of `N[C@@H](Cc1c[nH]c2ccccc12)C(=O)Nc1ccc(N2CCOCC2)cc1` [Compound 160, (S)-2-Amino-3-(1-indol-3-yl)-N-(4-morpholinophenyl)propanamide], on AIMP2-DX2 (setting [1]), the “DX-Nanoluciferase activity (10 μM)” value was 14.92 ± 17.49 (10 μM). Also, the “Cell Viability (% inhibition) (A549)” value with A549 cells is recorded as 15.52 ± 9.58%.

`CC(=O)N1CCN(c2ccc(NC(=O)[C@H](Cc3c[nH]c4ccccc34)NS(=O)(=O)c3ccc(C)cc3)cc2)CC1` [Compound 162, (S)—N-(4-(4-Acetylpiperazin-1-yl)phenyl)-3-(1H-indol-3-yl)-2-(4-methylphenylsulfonamido)propanamide]: the inhibition at 10 µM on AIMP2-DX2 is 20.6 ± 3.17%. Moreover, the “Cell Viability (% inhibition) (A549)” value in the data set on A549 cells was 19.92 ± 16.25%.

For the molecule `Cc1ccc(S(=O)(=O)N[C@@H](Cc2c[nH]c3ccccc23)C(=O)NC(C)C)cc1` [Compound 180, (S)-3-(1H-indol-3-yl)-N-isopropyl-2-(4-methylphenylsulfonamido)propanamide], the inhibition at 40 µM on AIMP2-DX2 (setting [2]) stood at 4.04 ± 4.08%. The “Cell Viability (% inhibition) (A549)” value in the data set with A549 cells was 28.20 ± 5.02%.
